Assay results taken from patent publication US8410141B2, “Insecticidal arylpyrrolines” (Bayer Cropscience AG, priority 2009, dated 2013).

Legend:
Format in all cases: in vivo
[1] = test system: Tobacco Cutworm (Spodoptera litura) Larvae; assay: Test against tobacco cutworm (Spodoptera litura) larvae, leaf immersion; settings: 100 ppm; sweet potato leaves immersed; third-instar larvae; after 7 days
Method: (§1) Unless not mentioned otherwise, the test solutions were prepared as follows:
(§2) Containing as solvent: Dimethylformamide, 3 parts by weight; and as emulsifier: Polyoxyethylene alkyl phenyl ether, 1 part by weight. To prepare the test solution, 1 part by weight of an active compound is mixed with the above-mentioned amount of solvent containing the above-mentioned amount of emulsifier, and the mixture is diluted with water to the desired concentration.
The leaves of sweet potato were immersed in the test solution at the appropriate concentration, and the leaves were dried in air. The leaves were then placed in a petri dish having a diameter of 9 cm, and ten third-instar larvae of tobacco cutworm were released therein. The petri dish was placed in a temperature-controlled chamber at 25° C. After 2 days and 4 days sweet potato leaves were additionally added. After 7 days, the number of dead larvae was counted to calculate the insecticidal activity. An insecticidal activity of 100% means that all larvae were killed, whereas an insecticidal activity of 0% means that no larva was killed. In the current test, the results of two petri dishes for each partition were averaged.

[2] = test system: Cucurbit Leaf Beetle (Aulacophora femoralis); assay: Test against cucurbit leaf beetle (Aulacophora femoralis), leaf immersion; settings: 100 ppm; cucumber leaves immersed; second-instar larvae; after 7 days
Method: as §1, §2
Cucumber leaves were immersed in the test solution at the appropriate concentration, and the leaves were dried in air. The leaves were then placed in a plastic cup containing sterilized black soil, and five second-instar larvae of cucurbit leaf beetle were released therein. The plastic cup was placed in a temperature-controlled chamber at 25° C. After 7 days, the number of dead larvae was counted, and thus the insecticidal activity was calculated. An insecticidal activity of 100% means that all beetles were killed, whereas an insecticidal activity of 0% means that no beetle was killed.

[3] = test system: Tobacco Cutworm (Spodoptera litura) Larvae; assay: Test against tobacco cutworm larvae, root systemicity; settings: 100 ppm; broccoli seedling roots dipped 3 days; second-instar larvae; after 4 days
Method: as §1, §2
The roots of seedling of broccoli at 1.2 leaf stage were dipped into the test solution at the appropriate concentration. After 3 days, the leaves were cut and placed in a petri dish having a diameter of 9 cm. And then five second-instar larvae of tobacco cutworm were released therein. The petri dish was placed in a temperature-controlled room at 25° C. After 4 days, the number of dead larvae was counted, to calculate the insecticidal activity. An insecticidal activity of 100% means that all larvae were killed, whereas an insecticidal activity of 0% means that no larva was killed.

Ctenocephalides felis = Ctenocephalides felis test (CTECFE); settings: for mortality: 100 ppm in cattle blood, adult unfed fleas, after 2 days
Method: (§3) Solvent: dimethyl sulfoxide
To produce a suitable preparation of active compound, 10 mg of active compound are dissolved in 0.5 ml solvent, and the concentrate is diluted with cattle blood to the desired concentration. Approximately 20 adult unfed (Ctenocepahlides felis) are placed in flea chambers. The blood chamber, sealed with parafilm on the bottom, are filled with cattle blood supplied with compound solution and placed on top of the flea chamber, so that the fleas are able to suck the blood. The blood chamber is heated to 37° C. whereas the flea chamber is kept at room temperature. After 2 days mortality in % is determined. 100% means that all the fleas have been killed; 0% means that none of the fleas have been killed.

Musca domestica = Musca domestica test; settings: for mortality: 100 ppm, sponge with sugar and compound solution, adults, after 2 days
Method: as §3
To produce a suitable preparation of active compound, 10 mg of active compound are dissolved in 0.5 ml solvent, and the concentrate is diluted with water to the desired concentration. Prior to the assay, a piece of kitchen sponge is soaked with a mixture of sugar and compound solution and placed into a container. 10 adults (Musca domestica) are placed into the container and closed with a perforated lid. After 2 days mortality in % is determined. 100% means that all the flies have been killed; 0% means that none of the flies have been killed.

[4] = test system: Two-Spotted Spider Mite (Tetranychus urticae); assay: Test against two-spotted spider mite (Tetranychus urticae), spray; settings: 100 ppm; sprayed on kidney bean; adult mites; after 7 days
Method: as §1, §2
50 to 100 adult two-spotted spider mites were inoculated onto the leaves of kidney beans at the two-true leaf stage, which plant had been cultivated in a pot having a diameter of 6 cm. After one day, test solution at the appropriate concentration was sprayed thereon in a sufficient amount using a spray gun. After the spraying, the plant pot was placed inside a greenhouse, and after 7 days, the acaricidal activity was calculated. An acaricidal activity of 100% means that all mites were killed, whereas an acaricidal activity of 0% means that no mite was killed.

[5] = test system: adult engorged female Boophilus microplus ticks; assay: Boophilus microplus (dip); settings: for mortality: 100 ppm, ticks immersed one minute, after 7 days
Method: Solvent: Dimethylsulfoxid
To produce a suitable preparation of active compound, 10 mg of active compound are dissolved in 0.5 ml solvent, and the concentrate is diluted with water to the desired concentration. Eight to ten adult engorged female Boophilus microplus ticks are placed in perforated plastic beakers and immersed in aqueous compound solution for one minute. Ticks are transferred to a filter paper in a plastic tray. Egg deposition of fertile eggs is monitored after. After 7 days mortality in % is determined. 100% means that all the ticks have been killed; 0% means that none of the ticks have been killed.

[6] = test system: Tobacco Cutworm (Spodoptera litura) Larvae; assay: Test against tobacco cutworm larvae, systemic test by soil drench; settings: 250 ppm, 20 ml soil drench on potted broccoli, leaves cut after 7 days, third-instar larvae
Method: as §1, §2
20 ml of the test solution at the appropriate concentration was treated on the soil surface of potted broccoli seedling at 2 to 3 leaf stage. After 7 days, the leaves were cut and placed in a petri dish having a diameter of 9 cm. And then ten third-instar larvae of tobacco cutworm were released therein. The petri dish was placed in a temperature-controlled room at 25° C. After 7 days, the number of dead larvae was counted to calculate the insecticidal activity. An insecticidal activity of 100% means that all larvae were killed, whereas an insecticidal activity of 0% means that no larva was killed. […] The comparative compound A is No. 1-72 in WO2009/097992.

[7] = test system: Rice Leafroller (Cnaphalocrocis medinalis) Larvae; assay: Test against rice leafroller larvae, seed treatment; settings: 8 g/1 kg dry seeds, leaves cut 28 days after seeding, third-instar larvae, after 7 days
Method: To prepare the test solution, 1 part by weight of an active compound is mixed with the 8 parts of acetone, and mix with 20 mg of micronized mineral. After that 1 g of dry rice seeds and 50 ul of water are added and mixed well and dried in the air. Sow treated seeds in the pot having a diameter of 12 cm. 28 days after seeding the leaves were cut and placed in a petri dish having a diameter of 9 cm. And then five third-instar larvae of rice leafroller were released therein. The petri dish was placed in a temperature-controlled room at 25° C. After 7 days, the number of dead larvae was counted to calculate the insecticidal activity. An insecticidal activity of 100% means that all larvae were killed, whereas an insecticidal activity of 0% means that no larva was killed. […] The comparative compound B is No. 1-79 in WO2009/097992.

[8] = test system: Nymphs of the tick Amblyomma hebraeum; assay: Amblyomma hebraeum test (AMBYHE); settings: 100 ppm; nymphs immersed one minute; after 42 days
Method: as §3
To produce a suitable preparation of active compound, 10 mg of active compound are dissolved in 0.5 ml solvent, and the concentrate is diluted with water to the desired concentration. Nymphs of the tick Amblyomma hebraeum are placed in perforated plastic beakers and immersed in aqueous compound solution for one minute. Ticks are transferred to a filter paper in a petri dish and incubated in a climate chamber for 42 days.
After 42 days mortality in % is determined. 100% means that all the ticks have been killed; 0% means that none of the ticks have been killed.

[9] = test system: Lucilia cuprina 1st instar larvae; assay: Lucilia cuprina (48 h)
Method: Species: Lucilia cuprina 1st instar larvae (age 24 hrs)
as §3
10 mg active compound are dissolved in 0.5 ml dimethyl sulfoxide. Serial dilutions are made to obtain the desired rates. Approximately 20 Lucilia cuprina 1st instar larvae are transferred into a test tube containing 1 cm^3 of minced horse meat and 0.5 ml aqueous dilution of test compound. After 48 hrs percentage of larval mortality are recorded. 100% efficacy=all larvae are killed, […].

## N#Cc1cc(C2=NCC(c3cccc(C(F)(F)F)n3)(C(F)(F)F)C2)ccc1-n1cncn1 (stereo not drawn) [1-126]
[1]
  insecticidal activity: 100%
[2]
  insecticidal activity: 100%
[3]
  insecticidal activity: 100%
Ctenocephalides felis
  mortality: 90%
Musca domestica
  mortality: 90%

## N#Cc1cc(C2=NCC(c3cc(Cl)c(Cl)c(Cl)c3)(C(F)(F)F)C2)cnc1-n1cncn1 (stereo not drawn) [1-52]
[1]
  insecticidal activity: 100%
[4]
  acaricidal activity rate: 100%
[2]
  insecticidal activity: 100%
[5]
  mortality: 90%

## N#Cc1cc(C2=NCC(c3cc(C(F)(F)F)nc(C(F)(F)F)c3)(C(F)(F)F)C2)ccc1-n1cncn1 (stereo not drawn) [1-22]
[1]
  insecticidal activity: 100%
[4]
  acaricidal activity rate: 100%
[2]
  insecticidal activity: 100%
[3]
  insecticidal activity: 100%
[6]
  insecticidal activity: 100%
[7]
  insecticidal activity: 100%

## N#Cc1cc(C2=NCC(c3cc(Cl)cc(C(F)(F)F)c3)(C(F)(F)F)C2)ccc1-n1cncn1 (stereo not drawn) [1-10]
[1]
  insecticidal activity: 100%
[4]
  acaricidal activity rate: 100%
[2]
  insecticidal activity: 100%
[3]
  insecticidal activity: 100%
[8]
  mortality: 100%

## N#Cc1cc(C2=NCC(c3cc(Cl)nc(Cl)c3)(C(F)(F)F)C2)ccc1-n1cncn1 (stereo not drawn) [1-1, 5-[3-(2,6-dichloropyridin-4-yl)-3-(trifluoromethyl)-3,4-dihydro-2H-pyrrol-5-yl]-2-(1H-1,2,4-triazol-1-yl)benzonitrile]
[1]
  insecticidal activity: 100%
[4]
  acaricidal activity rate: 100%
[2]
  insecticidal activity: 100%
[3]
  insecticidal activity: 100%
[6]
  insecticidal activity: 100%
[7]
  insecticidal activity: 100%
[5]; Rhipicephalus microplus, 168 h
  mortality at 100 ppm: 100%
Ctenocephalides felis; Ctenocephalides felis, 48 h
  mortality at 100 ppm: 100%
[9]; Lucilia cuprina, 48 h, read-out: larval mortality
  mortality at 100 ppm: 100%
Musca domestica; Musca domestica, 48 h
  mortality at 100 ppm: 100%

## Fc1cc(C2=NCC(c3cc(Cl)c(Cl)c(Cl)c3)(C(F)(F)F)C2)ccc1-n1cncn1 (stereo not drawn) [1-29]
[1]
  insecticidal activity: 100%
[2]
  insecticidal activity: 100%
[5]
  mortality: 95%

## N#Cc1cc(C2=NCC(c3cc(Cl)c([N+](=O)[O-])c(Cl)c3)(C(F)(F)F)C2)ccc1-n1cncn1 (stereo not drawn) [1-489]
[1]
  insecticidal activity: 100%
[5]
  mortality: 80%
Musca domestica
  mortality: 80%

## FC(F)(F)C1(c2cc(Cl)c(Cl)c(Cl)c2)CN=C(c2ccc(-n3cncn3)c(Cl)c2)C1 (stereo not drawn) [1-30]
[1]
  insecticidal activity: 100%
[4]
  acaricidal activity rate: 100%
[2]
  insecticidal activity: 100%
Ctenocephalides felis
  mortality: 90%

## FC(F)(F)C1(c2cc(Cl)nc(Cl)c2)CN=C(c2ccc(-n3cncn3)cc2)C1 (stereo not drawn) [1-2]
[1]
  insecticidal activity: 100%
[4]
  acaricidal activity rate: 100%
[2]
  insecticidal activity: 100%
[3]
  insecticidal activity: 100%
Musca domestica
  mortality: 90%

## N#Cc1cc(C2=NCC(c3ccnc(C(F)(F)F)c3)(C(F)(F)F)C2)ccc1-n1cncn1 (stereo not drawn) [1-21]
[1]
  insecticidal activity: 100%
[4]
  acaricidal activity rate: 100%
[2]
  insecticidal activity: 100%
[3]
  insecticidal activity: 100%
[6]
  insecticidal activity: 100%
Musca domestica
  mortality: 80%

## N#Cc1cc(C2=NCC(c3cccc(OC(F)F)c3)(C(F)(F)F)C2)ccc1-n1cncn1 (stereo not drawn) [1-483]
[4]
  acaricidal activity rate: 100%
[2]
  insecticidal activity: 100%
Ctenocephalides felis
  mortality: 90%

## N#Cc1cc(C2=NCC(c3cc(Cl)c4c(c3)OC(F)(F)O4)(C(F)(F)F)C2)ccc1-n1cncn1 (stereo not drawn) [1-25]
[1]
  insecticidal activity: 100%
[2]
  insecticidal activity: 100%
[3]
  insecticidal activity: 100%
[9]; 100 ppm, minced horse meat, after 48 hrs
  larval mortality: 90%
Musca domestica
  mortality: 90%

## N#Cc1cc(C2=NCC(c3cc(Cl)nc(Cl)c3)(C(F)(F)F)C2)cnc1-n1cncn1 (stereo not drawn) [1-66]
[1]
  insecticidal activity: 100%
[2]
  insecticidal activity: 100%
[3]
  insecticidal activity: 100%
Musca domestica
  mortality: 80%

## N#Cc1cc(C2=NCC(c3cncc(Cl)c3)(C(F)(F)F)C2)ccc1-n1cncn1 (stereo not drawn) [1-480]
[4]
  acaricidal activity rate: 100%
[2]
  insecticidal activity: 100%
Ctenocephalides felis
  mortality: 90%

## N#Cc1cc(C2=NCC(c3cc(Cl)c(F)c(Cl)c3F)(C(F)(F)F)C2)ccc1-n1cncn1 (stereo not drawn) [1-20]
[1]
  insecticidal activity: 100%
[4]
  acaricidal activity rate: 100%
[2]
  insecticidal activity: 100%
[3]
  insecticidal activity: 100%
[8]
  mortality: 100%

## N#Cc1cc(C2=NCC(c3cc(OC(F)F)cc(OC(F)F)c3)(C(F)(F)F)C2)ccc1-n1cncn1 (stereo not drawn) [1-485]
[1]
  insecticidal activity: 100%
[4]
  acaricidal activity rate: 100%
[2]
  insecticidal activity: 100%
[3]
  insecticidal activity: 100%
[5]
  mortality: 90%

## N#Cc1cc(C2=NCC(c3cc(Cl)c(F)c(Cl)c3)(C(F)(F)F)C2)ccc1-n1cncn1 (stereo not drawn) [1-13]
[1]
  insecticidal activity: 100%
[4]
  acaricidal activity rate: 100%
[2]
  insecticidal activity: 100%
[3]
  insecticidal activity: 100%
[8]
  mortality: 100%
